Test results reported in US20240368150A1 (Hoffmann-La Roche Inc., priority 2021, published 2024).
Where two headings read alike, the source gives them in different places.

Legend:
[1] = system: primary human T-cells
[2] = system: primary human T-cells; test: Proliferation assay after 5 days (CellTiter-Glo, CD3 stimulation; PBS counter screen); format: cell-based; settings: Homo sapiens, T-cell, 120 h, CD3 stimulation; for Emax: 5 days, normalized to reference compound A1 as stimulator control = 100%, DMSO neutral control, read-out: Emax proliferation (% activation); for EC50: primary human T-cells, CellTiter-Glo after 5 days, EC50 of fitted sigmoidal curve, read-out: Tcell Proliferation CD3 EC50
Procedure, shortened: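 Read-out: CellTiter-Glo 2.0 luminescence (ATP ∝ cell number) at day 5 after compound addition. Compounds activating unstimulated cells or reducing viability flagged.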

CC(C#N)c1nnc(-c2cc3c(cc2F)S(=O)(=O)C[C@H](N)C(=O)N3Cc2ccc(Cl)cc2)o1 (stereo partly drawn) [Example 103, 2-[5-[(3R)-3-amino-5-[(4-chlorophenyl)methyl]-8-fluoro-1,1,4-trioxo-2,3-dihydro-1λ^6,5-benzothiazepin-7-yl]-1,3,4-oxadiazol-2-yl]propanenitrile]
EC50 [1]: 583 nM
Emax [2]: 102%
EC50 [2]: 213 nM

CC(C)(C#N)c1nnc(-c2cc3c(cc2F)S(=O)(=O)C[C@H](N)C(=O)N3Cc2ccc(Cl)cc2)o1 [Example 104, 2-methyl-2-[5-[(3R)-3-amino-5-[(4-chlorophenyl)methyl]-8-fluoro-1,1,4-trioxo-2,3-dihydro-1λ^6,5-benzothiazepin-7-yl]-1,3,4-oxadiazol-2-yl]propanenitrile]
EC50 [1]: 277 nM
Emax [2]: 112%
EC50 [2]: 150 nM

N[C@H]1CS(=O)(=O)c2cc(F)c(-c3nnc(C4CNCCC4(F)F)o3)cc2N(Cc2ccc(Cl)cc2)C1=O (stereo partly drawn) [Example 105, (3R)-3-amino-5-[(4-chlorophenyl)methyl]-7-[5-(4,4-difluoro-3-piperidyl)-1,3,4-oxadiazol-2-yl]-8-fluoro-1,1-dioxo-2,3-dihydro-1λ^6,5-benzothiazepin-4-one]
EC50 [1]: 1170 nM
Emax [2]: 31%
EC50 [2]: 4160 nM

Cc1ccc(-c2nnc(-c3cc4c(cc3F)S(=O)(=O)C[C@H](N)C(=O)N4Cc3ccc(Cl)cc3)o2)cc1 [Example 106, (3R)-3-amino-5-[(4-chlorophenyl)methyl]-8-fluoro-1,1-dioxo-7-[5-(p-tolyl)-1,3,4-oxadiazol-2-yl]-2,3-dihydro-1λ^6,5-benzothiazepin-4-one]
EC50 [1]: 784 nM
Emax [2]: 111%
EC50 [2]: 254 nM

Cc1cccc(-c2nnc(-c3cc4c(cc3F)S(=O)(=O)C[C@H](N)C(=O)N4Cc3ccc(Cl)cc3)o2)c1 [Example 107, (3R)-3-amino-5-[(4-chlorophenyl)methyl]-8-fluoro-7-[5-(m-tolyl)-1,3,4-oxadiazol-2-yl]-1,1-dioxo-2,3-dihydro-1λ^6,5-benzothiazepin-4-one]
EC50 [1]: 188 nM
Emax [2]: 134%
EC50 [2]: 955 nM

N[C@H]1CS(=O)(=O)c2cc(F)c(-c3nnc(-c4ccccc4F)o3)cc2N(Cc2ccc(Cl)cc2)C1=O [Example 108, (3R)-3-amino-5-[(4-chlorophenyl)methyl]-8-fluoro-7-[5-(2-fluorophenyl)-1,3,4-oxadiazol-2-yl]-1,1-dioxo-2,3-dihydro-1λ^6,5-benzothiazepin-4-one]
EC50 [1]: 498 nM
Emax [2]: 117%
EC50 [2]: 1530 nM

Cc1nc(-c2nnc(-c3cc4c(cc3F)S(=O)(=O)C[C@H](N)C(=O)N4Cc3ccc(Cl)cc3)o2)no1 [Example 109, (3R)-3-amino-5-[(4-chlorophenyl)methyl]-8-fluoro-7-[5-(5-methyl-1,2,4-oxadiazol-3-yl)-1,3,4-oxadiazol-2-yl]-1,1-dioxo-2,3-dihydro-1λ^6,5-benzothiazepin-4-one]
EC50 [1]: 1500 nM
Emax [2]: 86%
EC50 [2]: 1740 nM

N[C@H]1CS(=O)(=O)c2cc(F)c(-c3nnc(C4CC5(CCOC5)C4)o3)cc2N(Cc2ccc(Cl)cc2)C1=O (stereo partly drawn) [Example 110, (3R)-3-amino-5-[(4-chlorophenyl)methyl]-8-fluoro-7-[5-(6-oxaspiro[3.4]octan-2-yl)-1,3,4-oxadiazol-2-yl]-1,1-dioxo-2,3-dihydro-1λ^6,5-benzothiazepin-4-one]
EC50 [1]: 232 nM
Emax [2]: 131%
EC50 [2]: 125 nM

CC(C)(CN)c1nnc(-c2cc3c(cc2F)S(=O)(=O)C[C@H](N)C(=O)N3Cc2ccc(Cl)cc2)o1 [Example 111, (3R)-3-amino-7-[5-(2-amino-1,1-dimethyl-ethyl)-1,3,4-oxadiazol-2-yl]-5-[(4-chlorophenyl)methyl]-8-fluoro-1,1-dioxo-2,3-dihydro-1λ^6,5-benzothiazepin-4-one]
EC50 [1]: 3130 nM
Emax [2]: 97%
EC50 [2]: 556 nM

N[C@H]1CS(=O)(=O)c2cc(F)c(-c3nnc(C4(C(F)F)CNC4)o3)cc2N(Cc2ccc(Cl)cc2)C1=O [Example 112, (3R)-3-amino-5-[(4-chlorophenyl)methyl]-7-[5-[3-(difluoromethyl)azetidin-3-yl]-1,3,4-oxadiazol-2-yl]-8-fluoro-1,1-dioxo-2,3-dihydro-1λ^6,5-benzothiazepin-4-one]
EC50 [1]: 3230 nM
Emax [2]: 124%
EC50 [2]: 1050 nM

CC1(c2nnc(-c3cc4c(cc3F)S(=O)(=O)C[C@H](N)C(=O)N4Cc3ccc(Cl)cc3)o2)CC1 [Example 113, (3R)-3-amino-5-[(4-chlorophenyl)methyl]-8-fluoro-7-[5-(1-methylcyclopropyl)-1,3,4-oxadiazol-2-yl]-1,1-dioxo-2,3-dihydro-1λ^6,5-benzothiazepin-4-one]
EC50 [1]: 100 nM
Emax [2]: 106%
EC50 [2]: 107 nM

CC(C)N(C)C(=O)c1nnc(-c2cc3c(cc2F)S(=O)(=O)C[C@H](N)C(=O)N3Cc2ccc(Cl)cc2)o1 [Example 114, N-isopropyl-N-methyl-5-[(3R)-3-amino-5-[(4-chlorophenyl)methyl]-8-fluoro-1,1,4-trioxo-2,3-dihydro-1λ^6,5-benzothiazepin-7-yl]-1,3,4-oxadiazole-2-carboxamide]
EC50 [1]: 756 nM
Emax [2]: 65%
EC50 [2]: > 10000 nM

CC(CO)(CCl)c1nnc(-c2cc3c(cc2F)S(=O)(=O)C[C@H](N)C(=O)N3Cc2ccc(Cl)cc2)o1 (stereo partly drawn) [Example 115, (3R)-3-amino-7-[5-[1-(chloromethyl)-2-hydroxy-1-methyl-ethyl]-1,3,4-oxadiazol-2-yl]-5-[(4-chlorophenyl)methyl]-8-fluoro-1,1-dioxo-2,3-dihydro-1λ^6,5-benzothiazepin-4-one]
EC50 [1]: 2210 nM
Emax [2]: 127%
EC50 [2]: 495 nM

NC1CC2(C1)CC(c1nnc(-c3cc4c(cc3F)S(=O)(=O)C[C@H](N)C(=O)N4Cc3ccc(Cl)cc3)o1)C2 (stereo partly drawn) [Example 116, (3R)-3-amino-7-[5-(2-aminospiro[3.3]heptan-6-yl)-1,3,4-oxadiazol-2-yl]-5-[(4-chlorophenyl)methyl]-8-fluoro-1,1-dioxo-2,3-dihydro-1λ^6,5-benzothiazepin-4-one]
EC50 [1]: 7340 nM
Emax [2]: 84%
EC50 [2]: 4640 nM

N[C@H]1CS(=O)(=O)c2cc(F)c(-c3nnc(C(=O)N4CCC(F)(F)C4)o3)cc2N(Cc2ccc(Cl)cc2)C1=O [Example 117, (3R)-3-amino-5-[(4-chlorophenyl)methyl]-7-[5-(3,3-difluoropyrrolidine-1-carbonyl)-1,3,4-oxadiazol-2-yl]-8-fluoro-1,1-dioxo-2,3-dihydro-1λ^6,5-benzothiazepin-4-one]
EC50 [1]: 3570 nM
Emax [2]: 68%
EC50 [2]: 5020 nM

N#CC1(c2nnc(-c3cc4c(cc3F)S(=O)(=O)C[C@H](N)C(=O)N4Cc3ccc(Cl)cc3)o2)CC1 [Example 118, 1-[5-[(3R)-3-amino-5-[(4-chlorophenyl)methyl]-8-fluoro-1,1,4-trioxo-2,3-dihydro-1λ^6,5-benzothiazepin-7-yl]-1,3,4-oxadiazol-2-yl]cyclopropanecarbonitrile]
EC50 [1]: 228 nM
Emax [2]: 99%
EC50 [2]: 669 nM

CC(C)(O)c1nnc(-c2cc3c(cc2F)S(=O)(=O)C[C@H](N)C(=O)N3Cc2ccc(Cl)cc2)o1 [Example 119, (3R)-3-amino-5-[(4-chlorophenyl)methyl]-8-fluoro-7-[5-(1-hydroxy-1-methyl-ethyl)-1,3,4-oxadiazol-2-yl]-1,1-dioxo-2,3-dihydro-1λ^6,5-benzothiazepin-4-one]
EC50 [1]: 1210 nM
Emax [2]: 97%
EC50 [2]: 730 nM

COC(=O)N1CC2(c3nnc(-c4cc5c(cc4F)S(=O)(=O)C[C@H](N)C(=O)N5Cc4ccc(Cl)cc4)o3)CC1CO2 (stereo partly drawn) [Example 120, methyl 1-[5-[(3R)-3-amino-5-[(4-chlorophenyl)methyl]-8-fluoro-1,1,4-trioxo-2,3-dihydro-1λ^6,5-benzothiazepin-7-yl]-1,3,4-oxadiazol-2-yl]-2-oxa-5-azabicyclo[2.2.1]heptane-5-carboxylate]
EC50 [1]: 256 nM
Emax [2]: 96%
EC50 [2]: 129 nM

N[C@H]1CS(=O)(=O)c2cc(F)c(-c3nnc(C45CNCCC4C5)o3)cc2N(Cc2ccc(Cl)cc2)C1=O (stereo partly drawn) [Example 121, (3R)-3-amino-7-[5-(3-azabicyclo[4.1.0]heptan-1-yl)-1,3,4-oxadiazol-2-yl]-5-[(4-chlorophenyl)methyl]-8-fluoro-1,1-dioxo-2,3-dihydro-1λ^6,5-benzothiazepin-4-one]
EC50 [1]: 6370 nM
Emax [2]: 72%
EC50 [2]: 4760 nM

CC(C)(C)c1nnc(-c2ccc3c(c2)N(Cc2ccc(S(=O)(=O)C(F)(F)F)cc2)C(=O)[C@@H](N)CS3(=O)=O)o1 [Example 123, (3R)-3-amino-7-(5-tert-butyl-1,3,4-oxadiazol-2-yl)-1,1-dioxo-5-[[4-(trifluoromethylsulfonyl)phenyl]methyl]-2,3-dihydro-1λ^6,5-benzothiazepin-4-one]
EC50 [1]: 1650 nM
Emax [2]: 82%
EC50 [2]: > 2730 nM

CN(C)C(=O)C(C)(C)c1nnc(-c2cc3c(cc2F)S(=O)(=O)C[C@H](N)C(=O)N3Cc2ccc(Cl)cc2)o1 [Example 125, N,N,2-trimethyl-2-[5-[(3R)-3-amino-5-[(4-chlorophenyl)methyl]-8-fluoro-1,1,4-trioxo-2,3-dihydro-1λ^6,5-benzothiazepin-7-yl]-1,3,4-oxadiazol-2-yl]propanamide]
EC50 [1]: 1440 nM
Emax [2]: 112%
EC50 [2]: 587 nM

N[C@H]1CS(=O)(=O)c2cc(F)c(-c3nnc(C4(C(F)(F)F)CC4)o3)cc2N(Cc2ccc(Cl)cc2)C1=O [Example 126, (3R)-3-amino-5-[(4-chlorophenyl)methyl]-8-fluoro-1,1-dioxo-7-[5-[1-(trifluoromethyl)cyclopropyl]-1,3,4-oxadiazol-2-yl]-2,3-dihydro-1λ^6,5-benzothiazepin-4-one]
EC50 [1]: 62.4 nM
Emax [2]: 135%
EC50 [2]: 113 nM
